Experimental data as given in ChEMBL document CHEMBL1201862, “PubChem BioAssay data set” (2004).
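Exposure lasted 48 hours, with cells grown in 96-well plates and compounds tested at five concentrations. The concentration for 50% growth inhibition is given as GI50.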 The source made the active and inactive calls. Rule as the data show it: active = GI50 up to about 1.1 µM and inactive = higher.

Key:
Experiment in all cases: NCI tumour cell line growth inhibition, 48 h
[1] = tested on: NCI-H522
[2] = tested on: DU-145
[3] = tested on: SR
[4] = tested on: NCI-H23
[5] = tested on: KM12
[6] = tested on: UACC-257
[7] = tested on: SW-620
[8] = tested on: UACC-62
[9] = tested on: BT-549
[10] = tested on: MDA-MB-435
[11] = tested on: SK-MEL-28
[12] = tested on: CAKI-1
[13] = tested on: K562
[14] = tested on: SNB-19
[15] = tested on: HOP-92
[16] = tested on: NCI/ADR-RES
[17] = tested on: SNB-75
[18] = tested on: Malme-3M
[19] = tested on: OVCAR-3
[20] = tested on: OVCAR-5
[21] = tested on: HCT-15
[22] = tested on: MDA-MB-231
[23] = tested on: 786-0
[24] = tested on: A549
[25] = tested on: NCI-H226
[26] = tested on: OVCAR-4
[27] = tested on: MCF7
[28] = tested on: U-251
[29] = tested on: IGROV-1
[30] = tested on: MOLT-4
[31] = tested on: HCC 2998
[32] = tested on: SK-MEL-5
[33] = tested on: HT-29
[34] = tested on: T47D
[35] = tested on: PC-3
[36] = tested on: SN12C
[37] = tested on: SF-268
[38] = tested on: UO-31
[39] = tested on: RPMI-8226
[40] = tested on: Hs-578T
[41] = tested on: A498
[42] = tested on: SK-MEL-2
[43] = tested on: EKVX
[44] = tested on: COLO 205
[45] = tested on: TK-10
[46] = tested on: OVCAR-8
[47] = tested on: LOX IMVI
[48] = tested on: ACHN
[49] = tested on: RXF 393
[50] = tested on: M14
[51] = tested on: HL-60
[52] = tested on: HCT-116
[53] = tested on: SF-295
[54] = tested on: SK-OV-3
[55] = tested on: HOP-62
[56] = tested on: SF-539
[57] = tested on: NCI-H460
[58] = tested on: MDA-N
[59] = tested on: CCRF-CEM

Measured: GI50

CC(=O)C1=C(C)N(c2ccc(C)cc2)C2(O)C3=C(C(=O)c4ccccc4C3=O)C(O)=CC12Cl (stereo not given)
19.8 µM: [21]
inactive: [1] 6.14 µM | [2] 24.7 µM | [3] 7.06 µM | [4] 12.7 µM | [5] 5.37 µM | [6] 9.38 µM | [7] 9.86 µM | [8] 5.11 µM | [9] 15 µM | [10] 3.79 µM | [11] 10.2 µM | [12] 10.4 µM | [13] 7.43 µM | [14] 12.8 µM | [15] 43.8 µM | [16] 5.65 µM | [17] 21.9 µM | [18] 10.5 µM | [19] 4.76 µM | [20] 25.5 µM | [22] 31.8 µM | [23] 25.4 µM | [24] 17.5 µM | [25] 43 µM | [26] 17.1 µM | [27] 12.1 µM | [28] 11.7 µM | [29] 11.1 µM | [30] 26.7 µM | [31] 12.7 µM | [32] 6.92 µM | [33] 22.3 µM | [34] 26.7 µM | [35] 8.85 µM | [36] 17 µM | [37] 23.6 µM | [38] 11.1 µM | [39] 6.5 µM | [40] 6.28 µM | [41] 3.15 µM | [42] 8.53 µM | [43] 54.1 µM | [44] 27.5 µM | [45] 28.4 µM | [46] 14.1 µM | [47] 12.1 µM | [48] 15.4 µM | [49] 9.73 µM | [50] 40.7 µM | [51] 4.31 µM | [52] 30.8 µM | [53] 5.81 µM | [54] 55.1 µM | [55] 32.2 µM | [56] 12.2 µM | [57] 20.9 µM

Cc1ccc(NC(=O)c2cc3ccccc3c(/N=N/c3cc(S(=O)(=O)O)ccc3O)c2O)c(C)c1
inactive: [1] 25.4 µM | [2] 19.2 µM | [4] 16.6 µM | [5] 16.1 µM | [6] 23.8 µM | [7] 10.9 µM | [8] 15.5 µM | [9] 17.8 µM | [10] 19.7 µM | [58] 32.2 µM | [11] 18.7 µM | [12] 32.5 µM | [13] 23 µM | [14] 15.8 µM | [15] 21.2 µM | [16] 25.6 µM | [17] 23.3 µM | [18] 16.4 µM | [19] 3.26 µM | [20] 16.2 µM | [22] 26.1 µM | [23] 16.2 µM | [24] 22.3 µM | [25] 15.4 µM | [26] 12.7 µM | [28] 4.33 µM | [29] 16.3 µM | [30] 17.1 µM | [32] 23.7 µM | [33] 12.4 µM | [34] 24.7 µM | [35] 14.5 µM | [36] 41.7 µM | [37] 18.6 µM | [38] 4.44 µM | [39] 15 µM | [40] 31.6 µM | [41] 42.3 µM | [42] 16 µM | [43] 19.6 µM | [44] 36.8 µM | [45] 25.1 µM | [46] 17.5 µM | [47] 32.4 µM | [48] 5.97 µM | [49] 17.5 µM | [50] 7.43 µM | [52] 29.9 µM | [53] 10 µM | [54] 20 µM | [59] 3.3 µM | [55] 13.1 µM
9.33 µM: [21]
